We go through two compounds from article PMC9500072, “Topical application of an irreversible small molecule inhibitor of lysyl oxidases ameliorates skin scarring and fibrosis” (Nature Communications, 2022).

The test system of one assay is fibroblasts. Description: RNASeq transcriptome analysis, fibroblasts. The format is cell-based, human. To be noted: 24 hrs of treatment.
The test system of a further assay is Purinergic P2Y. Nature of the assay: Eurofins panel 268810. The format is binding, rat. The settings on record: 10 µM.
The next assay addresses Adrenergic α1B (Rattus norvegicus, UniProt P15823). Nature of the assay: Eurofins panel 203200. The format is binding.
For assay [1], the system named is Glutamate, NMDA, Phencyclidine. Description: Eurofins panel 233000. The format is binding, rat. To be noted: 10 µM.
The target of the next assay is Melatonin MT1 (Homo sapiens, UniProt P48039). Description: Eurofins panel 251600. The format is binding.
Melatonin MT1, sequence (P48039 whole entry): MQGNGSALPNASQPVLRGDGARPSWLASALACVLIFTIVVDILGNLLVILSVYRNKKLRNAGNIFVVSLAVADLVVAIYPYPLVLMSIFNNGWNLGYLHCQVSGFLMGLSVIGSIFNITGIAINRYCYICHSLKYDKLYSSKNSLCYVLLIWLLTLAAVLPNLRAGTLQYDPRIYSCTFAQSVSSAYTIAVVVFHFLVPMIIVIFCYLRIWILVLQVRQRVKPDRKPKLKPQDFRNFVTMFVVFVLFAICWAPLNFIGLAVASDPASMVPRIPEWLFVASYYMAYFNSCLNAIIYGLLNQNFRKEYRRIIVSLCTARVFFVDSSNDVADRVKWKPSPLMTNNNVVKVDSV
The target in a further assay is Tachykinin NK1 (Homo sapiens, UniProt P25103). Nature of the assay: Eurofins panel 255520. It is filed as binding.
Tachykinin NK1, sequence (P25103 whole entry): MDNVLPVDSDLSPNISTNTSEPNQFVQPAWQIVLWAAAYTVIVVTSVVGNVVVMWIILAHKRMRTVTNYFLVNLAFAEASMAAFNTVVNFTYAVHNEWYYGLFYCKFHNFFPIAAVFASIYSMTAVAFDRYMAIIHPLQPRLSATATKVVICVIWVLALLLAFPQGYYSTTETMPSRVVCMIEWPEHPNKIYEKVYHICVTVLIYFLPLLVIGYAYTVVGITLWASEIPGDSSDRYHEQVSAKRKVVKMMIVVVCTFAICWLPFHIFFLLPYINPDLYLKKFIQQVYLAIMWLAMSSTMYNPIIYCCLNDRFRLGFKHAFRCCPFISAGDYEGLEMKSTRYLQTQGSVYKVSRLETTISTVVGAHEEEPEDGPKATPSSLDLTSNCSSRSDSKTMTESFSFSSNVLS
Assay [2] addresses Epidermal Growth Factor (EGF) (Homo sapiens, UniProt P00533). Description: Eurofins panel 225510. It is filed as binding.
A further assay has as its target T1, Bovine (aorta) LOX (Bos taurus, UniProt P33072).
T1 construct: Bovine (aorta) LOX used for analog screening due to ready availability; from tissue; host or cells: bovine aorta
T1 sequence (P33072 170-418): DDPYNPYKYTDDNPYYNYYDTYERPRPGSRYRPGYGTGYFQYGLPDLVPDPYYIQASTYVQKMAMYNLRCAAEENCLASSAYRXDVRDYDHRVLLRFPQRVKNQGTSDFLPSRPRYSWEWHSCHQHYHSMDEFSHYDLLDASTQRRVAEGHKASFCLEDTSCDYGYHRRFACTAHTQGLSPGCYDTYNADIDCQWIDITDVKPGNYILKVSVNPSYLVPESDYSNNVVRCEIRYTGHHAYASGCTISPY
Nature of the assay: Amplex Red oxidation assay, LOX inhibition. It is filed as biochemical. How it is done:
The measurement of the enzymatic activity of all lysyl oxidase family members was based on the detection of hydrogen peroxide with an Amplex-Red oxidation assay, as previously described; miniaturized in 384 well formats, with the appropriate combination of substrate and assay buffer for each individual enzyme. After a 30 min pre-incubation of the enzyme at 37 °C with the test compound (or with different incubation times for the time-dependency assay), one volume of reaction mixture containing 120 μM Amplex Red (AR) (Life Technologies), 1.5 U/mL horseradish peroxidase (HRP) (Sigma-Aldrich) and the specific substrate was added to each sample. The relative fluorescence units (RFU) were then measured every 2.5 min for 30 min at 37 °C, excitation 565 nm and emission 590, on a BMG Clariostar Microplate Reader. All the substrates were used at concentrations corresponding to their Km towards the corresponding enzyme, or with a range of different concentrations for the substrate competition experiments.
Lysyl oxidases assay buffer contained 1.2 M urea, 50 mM sodium borate buffer, pH 8.2 and 100 µM β-aminoproprionitrile (BAPN, Sigma-Aldrich) was used for low control.

Another assay deals with Imidazoline I2, Central. Description: Eurofins panel 241000. To be noted: 10 µM. It is filed as binding, rat.
For assay [3], the system named is lysyl oxidase activity in the skin. Description: Rat pharmacokinetic-pharmacodynamic model, skin lysyl oxidase activity. To be noted: for skin LOX activity S/N: individual animals; for inhibition of the specific lysyl oxidase signal: after 24 h. The format is in vivo. Here is the method:
PXS-6302 was formulated as an oil in water cream of different concentrations (0, 0.3, 1, 10%) and applied to a shaved area on the back of a rat (500 mg cream applied to 16 cm^2). After 24 h animals were sacrificed, the concentration of PXS-6302 in the skin was measured and the lysyl oxidase activity determined.
Fig. 5 Pharmacokinetic-pharmacodynamic measurement of target engagement in rat skin in vivo. […] Activity was measured 24 h after last topical application. Noise in these assays was determined by measuring background fluorescent changes in the presence of a high (>300 μM) concentration of BAPN to block all lysyl oxidase activity in the presence of other amine oxidase inhibitors (n = 3 per group). The signal (activity in the absence of BAPN) over noise (signal of the same extract in the presence of BAPN). Statistical analysis was performed with one-way ANOVA with Tukey’s method for multiple comparisons. *p < 0.05, **p < 0.01, ***p < 0.001 and ****p < 0.0001. Source data are provided as a Source Data file. […]
PXS-6302 was formulated as an oil in water cream of different concentrations (0, 0.3, 1, 10%) and applied to a shaved area on the back of an adult rat (500 mg cream applied to 16 cm^2 skin surface area). After 24 h animals were euthanased. For the detection of lysyl oxidase activity in the skin, epidermal and dermal layers of the skin were dissected, pre-cooled with liquid nitrogen and pulverized. Samples were washed by homogenization with ice-cold wash buffer (0.15 M NaCl, 50 mM sodium borate, pH 8.0 with 0.25 mM PMSF and 1 µL/mL bovine aprotinin as protease inhibitors) at 100 µL/mg, centrifuged at 10,000 × g for 10 min at 4 °C and supernatant discarded. After the final washing step, the pellet was resuspended in extraction buffer (6 M urea, 50 mM sodium borate, pH 8.2 with 0.25 mM PMSF and 1 µL/mL aprotinin as protease inhibitors) with ratio of buffer volume to tissue weight at 4:1. After a 3 h incubation at 4 °C, the mixture was diluted 1:2 with assay buffer containing 50 mM sodium borate (pH 8.2), centrifuged at 20,000 × g for 20 min at 4 °C. The collected supernatant was spiked with pargyline hydrochloride and mofegiline hydrochloride at final concentrations of 0.5 mM and 1 µM, respectively, to inhibit amine oxidases. Lysyl oxidase activity was measured as previously described. The concentration of PXS-6302 in the skin was also measured in the same samples using LCMSMS as described for Franz cell diffusion assay.

The target in another assay is Phosphodiesterase PDE4D2 (Homo sapiens, UniProt Q08499). Nature of the assay: Eurofins panel 154420. It is filed as biochemical.
Phosphodiesterase PDE4D2, sequence (Q08499 303-809 limits assumed): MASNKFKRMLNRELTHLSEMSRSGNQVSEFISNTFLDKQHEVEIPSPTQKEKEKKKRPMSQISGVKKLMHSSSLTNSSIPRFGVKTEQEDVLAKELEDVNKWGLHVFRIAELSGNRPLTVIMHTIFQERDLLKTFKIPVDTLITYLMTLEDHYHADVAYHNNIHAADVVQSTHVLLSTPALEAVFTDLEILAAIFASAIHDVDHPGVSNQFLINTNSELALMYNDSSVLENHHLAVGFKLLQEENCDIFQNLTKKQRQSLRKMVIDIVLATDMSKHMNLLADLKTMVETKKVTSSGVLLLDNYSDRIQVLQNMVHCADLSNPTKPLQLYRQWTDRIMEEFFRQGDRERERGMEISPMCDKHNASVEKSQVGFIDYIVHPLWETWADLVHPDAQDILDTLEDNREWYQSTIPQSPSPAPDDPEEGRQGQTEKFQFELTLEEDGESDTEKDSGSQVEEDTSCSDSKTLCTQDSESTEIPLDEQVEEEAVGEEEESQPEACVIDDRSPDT
Assay [4] deals with Protein Tyrosine Kinase, LCK (Homo sapiens, UniProt P06239). Description: Eurofins panel 176020. The format is biochemical.
Protein Tyrosine Kinase, LCK, sequence (P06239 whole entry): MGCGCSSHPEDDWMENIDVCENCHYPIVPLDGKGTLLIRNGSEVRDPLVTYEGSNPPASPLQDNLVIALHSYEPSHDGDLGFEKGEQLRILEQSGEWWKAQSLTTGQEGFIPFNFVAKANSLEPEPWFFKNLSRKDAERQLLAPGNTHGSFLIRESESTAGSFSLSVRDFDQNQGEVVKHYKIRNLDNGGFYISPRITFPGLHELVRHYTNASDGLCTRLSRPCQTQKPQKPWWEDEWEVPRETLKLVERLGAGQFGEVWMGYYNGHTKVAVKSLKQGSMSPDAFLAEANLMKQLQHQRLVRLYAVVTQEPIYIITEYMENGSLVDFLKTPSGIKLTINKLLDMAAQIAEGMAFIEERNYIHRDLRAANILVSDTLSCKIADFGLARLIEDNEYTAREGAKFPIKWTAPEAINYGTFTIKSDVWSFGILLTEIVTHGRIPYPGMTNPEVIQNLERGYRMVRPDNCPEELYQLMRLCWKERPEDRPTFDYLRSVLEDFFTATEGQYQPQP
Assay [5] has as its target Cholecystokinin CCK1 (CCKA) (Homo sapiens, UniProt P32238). Description: Eurofins panel 218030. It is filed as binding.
The next assay has as its target Cannabinoid CB2 (Homo sapiens, UniProt P34972). Nature of the assay: Eurofins panel 217100. It is filed as binding.

Values joined by “and” are separate entries in the source; they are usually repeats but may differ in a detail not shown here. Identical values can stand only once.

Cannabinoid CB2, sequence (P34972 whole entry): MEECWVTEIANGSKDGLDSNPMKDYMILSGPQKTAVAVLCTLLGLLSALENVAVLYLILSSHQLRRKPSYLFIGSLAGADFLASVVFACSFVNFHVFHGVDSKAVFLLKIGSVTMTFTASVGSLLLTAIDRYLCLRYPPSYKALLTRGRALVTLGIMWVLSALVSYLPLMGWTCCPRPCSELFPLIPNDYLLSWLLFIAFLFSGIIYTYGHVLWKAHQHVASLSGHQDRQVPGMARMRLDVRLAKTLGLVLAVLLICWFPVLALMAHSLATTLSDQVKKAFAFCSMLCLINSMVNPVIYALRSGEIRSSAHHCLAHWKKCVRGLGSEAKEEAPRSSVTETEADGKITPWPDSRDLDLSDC
Epidermal Growth Factor (EGF), sequence (P00533 25-1210): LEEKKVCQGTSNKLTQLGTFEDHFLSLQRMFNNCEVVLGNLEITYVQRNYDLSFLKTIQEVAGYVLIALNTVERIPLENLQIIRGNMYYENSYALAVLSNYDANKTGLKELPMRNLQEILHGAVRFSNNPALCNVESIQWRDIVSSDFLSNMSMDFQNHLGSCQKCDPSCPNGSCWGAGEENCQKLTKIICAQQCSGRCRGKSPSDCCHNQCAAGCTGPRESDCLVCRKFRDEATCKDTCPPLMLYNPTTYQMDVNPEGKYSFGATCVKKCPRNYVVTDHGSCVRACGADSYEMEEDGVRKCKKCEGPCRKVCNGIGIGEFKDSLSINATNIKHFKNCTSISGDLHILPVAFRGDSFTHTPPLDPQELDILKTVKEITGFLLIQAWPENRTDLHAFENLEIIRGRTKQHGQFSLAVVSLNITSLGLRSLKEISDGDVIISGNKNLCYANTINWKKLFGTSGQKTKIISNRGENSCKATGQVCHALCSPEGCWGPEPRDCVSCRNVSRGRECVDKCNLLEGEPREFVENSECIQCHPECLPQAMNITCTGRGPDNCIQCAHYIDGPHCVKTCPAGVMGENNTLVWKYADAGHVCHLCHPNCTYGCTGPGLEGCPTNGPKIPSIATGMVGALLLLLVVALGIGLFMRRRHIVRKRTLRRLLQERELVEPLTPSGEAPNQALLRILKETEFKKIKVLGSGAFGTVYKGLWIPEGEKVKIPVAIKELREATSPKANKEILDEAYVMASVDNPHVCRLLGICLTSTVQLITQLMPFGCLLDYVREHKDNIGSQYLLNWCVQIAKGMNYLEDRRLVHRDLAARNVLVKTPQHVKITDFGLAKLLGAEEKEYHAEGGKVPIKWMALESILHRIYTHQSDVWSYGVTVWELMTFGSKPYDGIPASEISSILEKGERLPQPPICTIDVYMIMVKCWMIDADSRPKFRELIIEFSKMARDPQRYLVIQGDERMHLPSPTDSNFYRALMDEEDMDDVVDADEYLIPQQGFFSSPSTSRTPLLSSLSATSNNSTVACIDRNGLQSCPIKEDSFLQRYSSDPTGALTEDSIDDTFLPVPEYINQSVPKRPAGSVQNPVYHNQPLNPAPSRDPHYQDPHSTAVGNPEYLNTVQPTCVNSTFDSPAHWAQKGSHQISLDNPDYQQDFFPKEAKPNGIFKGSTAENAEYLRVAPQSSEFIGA
Adrenergic α1B, sequence (P15823 whole entry): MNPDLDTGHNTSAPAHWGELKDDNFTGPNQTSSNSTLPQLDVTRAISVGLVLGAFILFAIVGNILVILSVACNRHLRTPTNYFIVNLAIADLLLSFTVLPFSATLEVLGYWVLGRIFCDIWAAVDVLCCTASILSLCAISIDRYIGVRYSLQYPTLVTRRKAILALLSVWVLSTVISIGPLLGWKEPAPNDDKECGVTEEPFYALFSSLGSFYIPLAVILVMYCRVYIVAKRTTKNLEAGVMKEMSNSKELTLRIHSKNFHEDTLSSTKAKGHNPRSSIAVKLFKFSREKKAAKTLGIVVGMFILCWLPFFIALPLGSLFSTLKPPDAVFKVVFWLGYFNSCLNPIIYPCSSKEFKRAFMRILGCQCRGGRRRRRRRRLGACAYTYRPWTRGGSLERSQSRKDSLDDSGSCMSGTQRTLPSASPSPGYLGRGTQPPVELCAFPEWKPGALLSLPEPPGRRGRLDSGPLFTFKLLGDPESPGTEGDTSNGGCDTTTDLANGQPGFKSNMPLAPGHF
Cholecystokinin CCK1 (CCKA), sequence (P32238 whole entry): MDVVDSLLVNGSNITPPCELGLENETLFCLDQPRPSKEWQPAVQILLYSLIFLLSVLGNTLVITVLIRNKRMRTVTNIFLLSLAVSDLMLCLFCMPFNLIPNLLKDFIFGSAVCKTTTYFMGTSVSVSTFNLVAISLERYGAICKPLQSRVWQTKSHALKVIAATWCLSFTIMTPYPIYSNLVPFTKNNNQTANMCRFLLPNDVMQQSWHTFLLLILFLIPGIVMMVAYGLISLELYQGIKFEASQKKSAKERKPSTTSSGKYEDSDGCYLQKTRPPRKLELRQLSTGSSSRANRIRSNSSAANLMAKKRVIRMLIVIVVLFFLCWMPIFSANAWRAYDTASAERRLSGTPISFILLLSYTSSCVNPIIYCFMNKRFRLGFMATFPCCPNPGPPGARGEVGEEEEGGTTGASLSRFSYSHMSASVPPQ

For the compound `NC/C=C(\F)CS(=O)(=O)c1ccccc1` [PXS-4787], in the assay on fibroblasts, the “Log2 fold change ACTA2-AS1” value is -3.268. In addition, the “Log2 fold change GAL” value in the assay with fibroblasts amounted to 2.787. In addition, in the assay on fibroblasts, the “Log2 fold change ICOSLG” value came out at 1.738. The “Log2 fold change TMEM88” value with fibroblasts was 2.374. Also, the “% Inh.” value is given as 2% with Purinergic P2Y; 8% in assay [1]; -10% in the assay on Imidazoline I2, Central. In addition, the inhibition at 10 µM was -2% against Adrenergic α1B; -2% against Melatonin MT1; 10% against Tachykinin NK1; 1% in [2]; 92.3% on Bovine (aorta) LOX (log conc -5, read-out: Fig 2A inhibition (mean)). For the same compound, the 50% inhibitory concentration (IC50) on Bovine (aorta) LOX (30 min pre-incubation) worked out at 2 µM. Besides, the inhibition at 30 µM on Bovine (aorta) LOX (log conc -4.5229, read-out: Fig 2A inhibition (mean)) came out at 99.2%. Further, the inhibition at 3.333 µM on Bovine (aorta) LOX (log conc -5.4771, read-out: Fig 2A inhibition (mean)) amounted to 65.8%. In addition, the inhibition at 1.111 µM at Bovine (aorta) LOX (log conc -5.9542, read-out: Fig 2A inhibition (mean)) was determined as 35%. Also, on Bovine (aorta) LOX (log conc -6.4313, read-out: Fig 2A inhibition (mean)), the inhibition at 0.3704 µM stood at 14.2%. Further, the inhibition at 0.1235 µM at Bovine (aorta) LOX (log conc -6.9083, read-out: Fig 2A inhibition (mean)) was 4.31%. At Bovine (aorta) LOX (log conc -7.3851, read-out: Fig 2A inhibition (mean)), the inhibition at 0.0412 µM turned out to be 1.21%. Besides, at Bovine (aorta) LOX (log conc -7.8633, read-out: Fig 2A inhibition (mean)), the inhibition at 0.0137 µM is -0.629%. For the same compound, the inhibition at 0.0046 µM on Bovine (aorta) LOX (log conc -8.3372, read-out: Fig 2A inhibition (mean)) is -1.3%. Further, the inhibition at […] on Bovine (aorta) LOX (log conc -8.8239, read-out: Fig 2A inhibition (mean)) is -1.09%. Further, at Bovine (aorta) LOX (log conc -9.301, read-out: Fig 2A inhibition (mean)), the inhibition at 0.0005 µM is -1.47%.

Take `NC/C=C(\F)C(F)(F)S(=O)(=O)c1ccccc1` [PXS-6302]: the “lysyl oxidase activity after repeat dosing” value in assay [3] (0.5, 1, 3% cream once daily 5 days) is “strongly reduced”. For the same compound, in [3] (1% cream, 48 h after the last dose), the “lysyl oxidase activity, % of pre-drug activity” value was found to be 26%. Further, the “skin LOX activity S/N” value was 1.603 and 1.3949 and 1.286 and 1.15 in assay [3] (repeat application 0.5% 400mg); 1.251 and 1.262 (2×) and 1.26 in assay [3] (repeat application 1% 400mg); 1.108 and 1.192 and 1.079 and 1.121 in assay [3] (repeat application 3% 400mg); 1.245 and 1.84 and 2.264 in assay [3] (single application 0.3% 500mg); 1.893 and 1.116 and 1.337 in [3] (single application 1% 500mg); 1.274 and 1.089 and 1.033 in assay [3] (single application 10% 500mg). Moreover, the “inhibition of the specific lysyl oxidase signal” value in [3] (single dose 1% cream) is 67%; in assay [3] (single dose 10% cream), 98%. The inhibition at 30 µM is 3% against Phosphodiesterase PDE4D2, 1% in [4], 1% in assay [5] and -4% against Cannabinoid CB2.
